{"source": "paper PMC6934184", "about": "“Selective DNA-PKcs inhibition extends the therapeutic index of localized radiotherapy and chemotherapy” (The Journal of Clinical Investigation, 2019)", "tested_on": "normal lung tissue", "experiment": "γH2AX-positive cells in normal lung after thoracic irradiation", "assay_type": "in vivo, mouse", "details": "24 hours after 10 Gy; NU5455 30 mg/kg oral", "method": "combined with 10 Gy thorax irradiation ( n = 6 - 7/group). For whole-thorax irradiation, anaesthetized mice were placed in the supine position in a customized rig. The whole thorax was exposed to X-ray radiation generated by the Gulmay Medical RS320 irradiation system (2.034 Gy/minute). The rest of the body was protected by lead shields. Three mice fr om each treatment group were humanely killed 24 h ours after irradiation, and their tumors processed to permit immunohistochemical analysis .\nTumor growth in the remaining mice was monitored by bioluminescent imaging on days 0, 4, 8 and 15 post-treatment. Mice were injected with luciferin (150 mg/kg i.p., Santa Cruz Biotechnology) and bioluminescence images were acquired using the IVIS Spectrum (PerkinElmer) at 5 minute intervals until maximum light was collected. […] Data were analyzed using LivingImage software (PerkinElmer). […]\nTissues were fixed in 4% paraformaldehyde (PFA) and paraffin -embedded. […] One tissue section from each of 3 mice per group was examined, and the whole section (excluding necrotic areas) analyzed using ImageScope analysis software (Aperio Technologies). γH2AX and 53BP1 foci were manually counted in 200 nuclei from each tumor sample. The percentage of γH2AX and 53BP1 positive nuclei in lung epithelial cells was quantified manually in normal lung samples across 5 randomly-chosen fields of view per […]"}
{"smiles": "CN(C(=O)CN1CCOCC1)c1ccc2sc3c(-c4cccc5c(=O)cc(N6CC7CCC(C6)O7)oc45)cccc3c2c1", "note": "[NU5455]", "values": [{"measurement": "number of γH2AX-positive cells in normal lung", "value": "unaffected by NU5455 administration"}]}
